Assay results published in PubChem BioAssay AID192 (DTP/NCI, 2004).
“And” between values parts separate entries of the source, which are not always exact repeats. Equal entries are not always repeated. Inconclusive results and toxic doses are left out.

Tested on: BDF1 mice, B16 melanoma ip, median survival T/C
Assay: NCI In Vivo Anticancer Drug Screen. Data for tumor model B16 Melanoma (intraperitoneal) in B6D2F1 (BDF1) mice
Details: endpoint: median survival time, higher = longer survival
In short: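 Compounds were tested in mice carrying transplantable tumors. Survival or tumor size was recorded, and each value is the treated-group measurement (T) divided by that of the vehicle-treated control group (C).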

[1] = dose: 100.0 mg/kg/injection, schedule: Q01DX009 (ip), vehicle: Klucel (hydroxypropylcellulose) (HPC)
[2] = dose: 200.0 mg/kg/injection, schedule: Q01DX009 (ip), vehicle: Klucel (hydroxypropylcellulose) (HPC)
[3] = dose: 400.0 mg/kg/injection, schedule: Q01DX009 (ip), vehicle: Klucel (hydroxypropylcellulose) (HPC)
[4] = dose: 6.25 mg/kg/injection, schedule: Q01DX009 (ip), vehicle: Klucel (hydroxypropylcellulose) (HPC)
[5] = dose: 12.5 mg/kg/injection, schedule: Q01DX009 (ip), vehicle: Klucel (hydroxypropylcellulose) (HPC)
[6] = dose: 25.0 mg/kg/injection, schedule: Q01DX009 (ip), vehicle: Klucel (hydroxypropylcellulose) (HPC)

## O=C/C(Cl)=C(/Cl)C(=O)O
dose: 2.5 mg/kg/injection, schedule: Q01DX009 (ip), vehicle: saline with Tween-80
  T/C: 99 % of control
dose: 5.0 mg/kg/injection, schedule: Q01DX009 (ip), vehicle: saline with Tween-80
  T/C: 87 % of control
dose: 10.0 mg/kg/injection, schedule: Q01DX009 (ip), vehicle: saline with Tween-80
  T/C: 102 % of control
dose: 20.0 mg/kg/injection, schedule: Q01DX009 (ip), vehicle: saline with Tween-80
  T/C: 106 % of control

## CCOC(=O)C1=NN(c2ccccc2)C(=O)C1
[1]
  T/C: 97 % of control
[2]
  T/C: 97 % of control
[3]
  T/C: 97 % of control

## C[n+]1ccc(C#N)c2ccccc21
dose: 3.75 mg/kg/injection, schedule: Q01DX009 (ip), vehicle: saline
  T/C: 102 % of control
dose: 7.5 mg/kg/injection, schedule: Q01DX009 (ip), vehicle: saline
  T/C: 93 % of control

## CC1(C)[C@H]2CC[C@@]1(C)C(=O)[C@H]2[N+](=O)[O-]
[1]
  T/C: 114 % of control
[2]
  T/C: 111 % of control
[3]
  T/C: 108 % of control

## CC(=N\O)/C(C)=N/O.CC(=N\O)/C(C)=N/O.[Pd]
dose: 0.75 mg/kg/injection, schedule: Q01DX009 (ip), vehicle: Klucel (hydroxypropylcellulose) (HPC)
  T/C: 96 % of control
dose: 1.57 mg/kg/injection, schedule: Q01DX009 (ip), vehicle: Klucel (hydroxypropylcellulose) (HPC)
  T/C: 95 % of control
dose: 3.13 mg/kg/injection, schedule: Q01DX009 (ip), vehicle: Klucel (hydroxypropylcellulose) (HPC)
  T/C: 96 % of control
[4]
  T/C: 94 % of control

## COc1cccc2c1C(=O)c1c(O)c3c(c(O)c1C2=O)C[C@@](O)(/C(C)=N/NC(=O)c1ccc(Cl)cc1)C[C@@H]3OC1CC(N)C(O)C(C)O1 (stereo partly specified)
dose: 1.0 mg/kg/injection, schedule: Q01DX009 (ip), vehicle: suspension in saline
  T/C: 155 % of control
dose: 2.0 mg/kg/injection, schedule: Q01DX009 (ip), vehicle: suspension in saline
  T/C: 188 % of control
dose: 2.5 mg/kg/injection, schedule: Q01DX001 (ip), vehicle: saline with Tween-80
  T/C: 155 % of control
dose: 2.5 mg/kg/injection, schedule: Q01DX001 (ip), vehicle: water
  T/C: 121 % of control
dose: 4.0 mg/kg/injection, schedule: Q01DX009 (ip), vehicle: suspension in saline
  T/C: 193 % of control
dose: 5.0 mg/kg/injection, schedule: Q01DX001 (ip), vehicle: saline with Tween-80
  T/C: 204 % of control
dose: 5.0 mg/kg/injection, schedule: Q01DX001 (ip), vehicle: water
  T/C: 279 % of control
dose: 8.0 mg/kg/injection, schedule: Q01DX009 (ip), vehicle: suspension in saline
  T/C: 322 % of control
dose: 10.0 mg/kg/injection, schedule: Q01DX001 (ip), vehicle: saline with Tween-80
  T/C: 196 % of control
dose: 10.0 mg/kg/injection, schedule: Q01DX001 (ip), vehicle: water
  T/C: 154 % of control and 300 % of control
dose: 20.0 mg/kg/injection, schedule: Q01DX001 (ip), vehicle: saline with Tween-80
  T/C: 280 % of control
dose: 20.0 mg/kg/injection, schedule: Q01DX001 (ip), vehicle: water
  T/C: 235 % of control
dose: 40.0 mg/kg/injection, schedule: Q01DX001 (ip), vehicle: saline with Tween-80
  T/C: 205 % of control

## N=C(N)SCCCCCCCCCCSC(=N)N
dose: 6.25 mg/kg/injection, schedule: Q01DX009 (ip), vehicle: saline with Tween-80
  T/C: 95 % of control
dose: 12.5 mg/kg/injection, schedule: Q01DX009 (ip), vehicle: saline with Tween-80
  T/C: 88 % of control
dose: 25.0 mg/kg/injection, schedule: Q01DX009 (ip), vehicle: saline with Tween-80
  T/C: 86 % of control and 88 % of control

## Cc1cc(=O)n2c3c(c(N)ccc13)OC2
[1]
  T/C: 100 % of control
[2]
  T/C: 92 % of control

## O=C(O)c1cccnc1
[5]
  T/C: 112 % of control
[6]
  T/C: 105 % of control
dose: 50.0 mg/kg/injection, schedule: Q01DX009 (ip), vehicle: Klucel (hydroxypropylcellulose) (HPC)
  T/C: 97 % of control
[1]
  T/C: 100 % of control

## C=CCN1CCC(C(=O)CC)(c2ccccc2)CC1
dose: 10.0 mg/kg/injection, schedule: Q04DX003 (ip), vehicle: Klucel (hydroxypropylcellulose) (HPC)
  T/C: 111 % of control
dose: 20.0 mg/kg/injection, schedule: Q04DX003 (ip), vehicle: Klucel (hydroxypropylcellulose) (HPC)
  T/C: 114 % of control
dose: 40.0 mg/kg/injection, schedule: Q04DX003 (ip), vehicle: Klucel (hydroxypropylcellulose) (HPC)
  T/C: 114 % of control

## CCCCCCCCCCCC(=O)CCC
[1]
  T/C: 93 % of control
[2]
  T/C: 91 % of control
[3]
  T/C: 90 % of control

## CC[C@](C)(O)C(=O)O[C@H]1C(=O)O[C@@H]2C[C@H]3C(C)=CC(=O)[C@@H](O)[C@]3(C)[C@H]3[C@@]4(O)OC[C@]32[C@@H]1[C@@H](C)[C@H]4O
dose: 0.13 mg/kg/injection, schedule: Q01DX009 (ip), vehicle: Klucel (hydroxypropylcellulose) (HPC)
  T/C: 110 % of control
dose: 0.13 mg/kg/injection, schedule: Q01DX009 (ip), vehicle: steriod suspending solution
  T/C: 108 % of control
dose: 0.25 mg/kg/injection, schedule: Q01DX009 (ip), vehicle: Klucel (hydroxypropylcellulose) (HPC)
  T/C: 107 % of control
dose: 0.25 mg/kg/injection, schedule: Q01DX009 (ip), vehicle: saline
  T/C: 121 % of control
dose: 0.25 mg/kg/injection, schedule: Q01DX009 (ip), vehicle: steriod suspending solution
  T/C: 122 % of control
dose: 0.5 mg/kg/injection, schedule: Q01DX009 (ip), vehicle: Klucel (hydroxypropylcellulose) (HPC)
  T/C: 114 % of control
dose: 0.5 mg/kg/injection, schedule: Q01DX009 (ip), vehicle: saline
  T/C: 154 % of control
dose: 1.0 mg/kg/injection, schedule: Q01DX009 (ip), vehicle: steriod suspending solution
  T/C: 114 % of control
dose: 125.0 micrograms/kg/injection, schedule: Q01DX009 (ip), vehicle: saline with Tween-80
  T/C: 121 % of control
dose: 250.0 micrograms/kg/injection, schedule: Q01DX009 (ip), vehicle: saline with Tween-80
  T/C: 112 % of control
dose: 500.0 micrograms/kg/injection, schedule: Q01DX009 (ip), vehicle: saline with Tween-80
  T/C: 121 % of control

## COc1cc2cc(c1Cl)N(C)C(=O)CC(OC(=O)C(C)C)C1(C)OC1C(C)C1CC(O)(NC(=O)O1)C(OC)/C=C/C=C(C)C2 (stereo unspecified)
dose: 3.1 micrograms/kg/injection, schedule: Q01DX009 (ip), vehicle: saline + alcohol
  T/C: 124 % of control
dose: 6.25 micrograms/kg/injection, schedule: Q01DX009 (ip), vehicle: saline + alcohol
  T/C: 169 % of control
dose: 7.0 micrograms/kg/injection, schedule: Q01DX009 (ip), vehicle: saline + alcohol
  T/C: 150 % of control
dose: 12.5 micrograms/kg/injection, schedule: Q01DX009 (ip), vehicle: saline + alcohol
  T/C: 152 % of control and 168 % of control
dose: 15.0 micrograms/kg/injection, schedule: Q01DX009 (ip), vehicle: saline + alcohol
  T/C: 165 % of control
dose: 25.0 micrograms/kg/injection, schedule: Q01DX009 (ip), vehicle: saline + alcohol
  T/C: 157 % of control and 160 % of control and 165 % of control
dose: 30.0 micrograms/kg/injection, schedule: Q01DX009 (ip), vehicle: saline + alcohol
  T/C: 178 % of control
dose: 50.0 micrograms/kg/injection, schedule: Q01DX009 (ip), vehicle: saline + alcohol
  T/C: 164 % of control and 176 % of control
dose: 60.0 micrograms/kg/injection, schedule: Q01DX009 (ip), vehicle: saline + alcohol
  T/C: 182 % of control

## O=c1n[n+]([O-])ccn1C1OC(CO)C(O)C1O (stereo unspecified)
dose: 25.0 mg/kg/injection, schedule: Q01DX009 (ip), vehicle: saline
  T/C: 92 % of control and 108 % of control
dose: 50.0 mg/kg/injection, schedule: Q01DX009 (ip), vehicle: saline
  T/C: 102 % of control and 115 % of control
dose: 100.0 mg/kg/injection, schedule: Q01DX009 (ip), vehicle: saline
  T/C: 115 % of control and 120 % of control
dose: 200.0 mg/kg/injection, schedule: Q01DX009 (ip), vehicle: saline
  T/C: 122 % of control

## CC[n+]1ccc(/C=C\c2c(Cl)cccc2Cl)cc1
[4]
  T/C: 94 % of control
[5]
  T/C: 88 % of control
[6]
  T/C: 88 % of control

## NC(=O)NO
dose: 37.5 mg/kg/injection, schedule: Q03HX024 (ip), vehicle: saline
  T/C: 95 % of control and 100 % of control
dose: 75.0 mg/kg/injection, schedule: Q03HX024 (ip), vehicle: saline
  T/C: 95 % of control
dose: 150.0 mg/kg/injection, schedule: Q01DX009 (ip), vehicle: water
  T/C: 95 % of control
dose: 150.0 mg/kg/injection, schedule: Q01DX017 (ip), vehicle: water
  T/C: 93 % of control
dose: 150.0 mg/kg/injection, schedule: Q## X009 (ip), vehicle: water
  T/C: 95 % of control
dose: 300.0 mg/kg/injection, schedule: Q01DX009 (ip), vehicle: water
  T/C: 100 % of control
dose: 300.0 mg/kg/injection, schedule: Q01DX017 (ip), vehicle: water
  T/C: 97 % of control
dose: 300.0 mg/kg/injection, schedule: Q## X009 (ip), vehicle: water
  T/C: 93 % of control
dose: 600.0 mg/kg/injection, schedule: Q## X009 (ip), vehicle: water
  T/C: 100 % of control
dose: 2400.0 mg/kg/injection, schedule: Q01DX001 (ip), vehicle: water
  T/C: 100 % of control
